According to US12398154B2, “Azaquinazoline pan-KRas inhibitors” (Mirati Therapeutics, Inc., priority 2020, dated 2025):
pIC50: −log10 of the molar value.

Experiments:
KRas G12D = KRas G12D (Homo sapiens, UniProt P01116, G12D); assay: biochemical;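 further: TR-FRET displacement binding assay on KRas, read after a one-hour incubation at room temperature, IC50 fitted from percent-of-control values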
Description: (§1) The ability of a compound to bind to KRas was measured using a TR-FRET displacement assay. […] After a 60-minute incubation at room temperature, the reaction was measured using a BMG LABTECH CLARIO star Plus via TR-FRET. […] The POC values were fit to a 4-parameter IC50 equation and the IC50 value reported.

KRas G12V = KRas G12V (Homo sapiens, UniProt P01116, G12V); assay: biochemical;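 further: KRas binding measured by TR-FRET displacement at room temperature, IC50 fitted from percent of control values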
KRas G12V, sequence (P01116 1-169 isoform P01116-2 G12V): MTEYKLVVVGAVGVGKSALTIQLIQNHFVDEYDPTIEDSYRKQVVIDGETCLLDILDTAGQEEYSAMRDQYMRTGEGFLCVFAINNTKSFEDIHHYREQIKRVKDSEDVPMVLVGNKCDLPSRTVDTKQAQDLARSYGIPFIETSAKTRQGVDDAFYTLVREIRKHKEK
Description: as §1

KRas G12R = KRas G12R (Homo sapiens, UniProt P01116, G12R); assay: biochemical;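 further: TR-FRET displacement assay of compound binding to KRas, read after one hour at room temperature, potency from a four-parameter fit of percent-of-control values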
KRas G12R, sequence (P01116 1-169 isoform P01116-2 G12R): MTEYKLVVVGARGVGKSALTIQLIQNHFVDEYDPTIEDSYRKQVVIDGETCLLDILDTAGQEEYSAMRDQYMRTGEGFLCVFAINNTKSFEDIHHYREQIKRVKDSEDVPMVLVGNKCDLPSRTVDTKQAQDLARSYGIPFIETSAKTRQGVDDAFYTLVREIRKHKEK
Description: as §1

KRas G12A = KRas G12A (Homo sapiens, UniProt P01116, G12A); assay: biochemical;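 further: binding to KRas measured by TR-FRET displacement after one hour at room temperature, IC50 from a four-parameter fit of percent-of-control values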
KRas G12A, sequence (P01116 1-169 isoform P01116-2 G12A): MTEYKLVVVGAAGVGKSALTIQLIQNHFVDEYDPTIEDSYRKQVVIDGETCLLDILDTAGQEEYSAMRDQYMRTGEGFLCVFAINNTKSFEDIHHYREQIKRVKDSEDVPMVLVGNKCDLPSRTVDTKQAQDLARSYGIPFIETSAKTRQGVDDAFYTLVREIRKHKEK
Description: as §1

KRas G12S = KRas G12S (Homo sapiens, UniProt P01116, G12S); assay: biochemical;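 further: TR-FRET displacement binding to KRas, read after one hour incubation at room temperature, IC50 from four-parameter fit of percent of control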
KRas G12S, sequence (P01116 1-169 isoform P01116-2 G12S): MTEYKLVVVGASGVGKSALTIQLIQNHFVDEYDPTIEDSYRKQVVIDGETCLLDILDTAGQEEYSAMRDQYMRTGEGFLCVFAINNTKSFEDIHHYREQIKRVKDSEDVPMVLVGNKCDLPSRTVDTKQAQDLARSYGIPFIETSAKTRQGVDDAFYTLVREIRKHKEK
Description: as §1

KRas G12C = KRas G12C (Homo sapiens, UniProt P01116, G12C); assay: biochemical;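 further: binding to KRas assessed by TR-FRET displacement after one hour incubation at room temperature, potency fitted from percent-of-control values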
KRas G12C, sequence (P01116 1-169 isoform P01116-2 G12C): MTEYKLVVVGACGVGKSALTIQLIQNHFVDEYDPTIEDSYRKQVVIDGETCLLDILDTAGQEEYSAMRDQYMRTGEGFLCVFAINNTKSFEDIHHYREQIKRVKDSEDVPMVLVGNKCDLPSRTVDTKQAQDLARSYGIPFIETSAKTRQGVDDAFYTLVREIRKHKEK
Description: as §1

KRas WT = KRas WT (Homo sapiens, UniProt P01116); assay: biochemical;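 further: binding to KRas read as TR-FRET displacement after a one-hour room-temperature incubation, IC50 derived from percent-of-control values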
KRas WT, sequence (P01116 1-169 isoform P01116-2): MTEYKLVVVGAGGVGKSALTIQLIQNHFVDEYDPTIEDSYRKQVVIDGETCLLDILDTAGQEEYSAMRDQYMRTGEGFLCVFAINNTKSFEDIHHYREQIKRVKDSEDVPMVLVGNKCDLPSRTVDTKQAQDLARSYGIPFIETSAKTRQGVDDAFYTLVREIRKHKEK
Description: as §1

pERK in MKN1 cells = assay: Inhibition of KRas phosphorylation of ERK (Cisbio HTRF pERK assay); conditions: Homo sapiens, MKN-1, 3 h, read-out: Inhibition (HTRF IC50) of KRas-mediated Phosphorylation of ERK, MKN1
pERK in PSN1 cells = assay: as above; conditions: Homo sapiens, PSN1, 3 h, read-out: Inhibition (HTRF IC50) of KRas-mediated Phosphorylation of ERK, PSN1
pERK in ASPC1 cells = assay: as above; conditions: Homo sapiens, ASPC1, read-out: Inhibition (HTRF IC50) of KRas-mediated Phosphorylation of ERK, AsPC-1
pERK in H727 cells = assay: as above; conditions: Homo sapiens, NCI-H727, read-out: Inhibition (HTRF IC50) of KRas-mediated Phosphorylation of ERK, H727
Description: To harvest cells from flask using 0.05% Trypsin/EDTA solution. Add 10 mL of media to stop trypsinizing. Pipette the cells into a conical bottom 50 mL centrifuge tube and centrifuge 5 min×1000 rpm. • 2. Re-suspend the cell pellet in media, take a cell count, and then adjust the cell density using fresh media. • 3. Seed 6,000 cells into cell culture plate with 50 μL media. […] Incubate cell plate overnight in a 37° C., 5% CO2 incubator. • Compound titrations • 1. Use Tecan to complete the compound addition. Compounds start from 10 uM top, 3-fold dilution, and 10 doses. The final DMSO concentration is 0.8%. Dispensed 0.2 uM Trametinib as Min control. • 2. Incubate cell plate for 3 hrs in the incubator. • Detection with cisbio pERK HTRF kit • 1. […] At the end of the compound treatment, flick-off the media. • 3. Add 35 μL of lysis buffer per well using a Multidrop Combi. Then place on a plate agitator shaking at 300 rpm at 4° C. for 40 mins. • 4. Make up the HTRF antibody buffer. For each assay plate, mix 50 μL of d2-conjugate antibody with 950 μL of detection buffer. Similarly, mix 50 μL of Cryptate antibody with 950 μL of detection buffer. Then mix the two diluted antibodies together. • 5. Dispense 3.4 μL the antibody buffer to wells of an empty assay plate. Seal the plate and centrifuge plate 30 sec×1000 rpm. • 6. At the end of the 4° C. lysis, centrifuge the lysate plates 3 mins×1500 rpm. • 7. Use the Bravo to transfer 13.6 μL of lysate from cell culture plate to assay plate.
Then incubate assay plate for 2 hrs at room temperature. […] At the end of incubation, read plate on the Envision after centrifuging plate 30 sec× • 1000 rpm.

pERK in H460 cells = assay: as above; conditions: Homo sapiens, NCI-H460, read-out: Inhibition (HTRF IC50) of KRas-mediated Phosphorylation of ERK, H460
pERK in HCT116 cells = assay: as above; conditions: Homo sapiens, HCT-116, read-out: Inhibition (HTRF IC50) of KRas-mediated Phosphorylation of ERK, HCT116

KRas G12D, sequence (P01116 1-169 isoform P01116-2 G12D): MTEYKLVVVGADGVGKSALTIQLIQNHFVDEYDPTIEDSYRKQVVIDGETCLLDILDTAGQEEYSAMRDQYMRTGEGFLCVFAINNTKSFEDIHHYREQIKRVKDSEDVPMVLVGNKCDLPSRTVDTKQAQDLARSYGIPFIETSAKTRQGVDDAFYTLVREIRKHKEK

pIC50 (KRas G12D)	pIC50 (KRas G12V)	pIC50 (KRas G12R)	pIC50 (KRas G12A)	pIC50 (KRas G12S)	pIC50 (KRas G12C)	pIC50 (KRas WT)	pIC50 (pERK in MKN1 cells)	pIC50 (pERK in PSN1 cells)	pIC50 (pERK in ASPC1 cells)	pIC50 (pERK in H727 cells)	pIC50 (pERK in H460 cells)	pIC50 (pERK in HCT116 cells)	SMILES
8.30	8.40	7.92					6.48	≤ 5.00	6.69	6.94	6.01		CCc1c(F)ccc2cc(O)cc(-c3ncc4c(N5CCCc6nn(C(=O)NC(C)C)cc6C5)nc(OC[C@@]56CCCN5C[C@H](F)C6)nc4c3F)c12 [Example 479, 5-(7-(8-ethyl-7-fluoro-3-hydroxynaphthalen-1-yl)-8-fluoro-2-(((2R,7aS)-2-fluorohexahydro-1H-pyrrolizin-7a-yl)methoxy)pyrido[4,3-d]pyrimidin-4-yl)-N-isopropyl-5,6,7,8-tetrahydropyrazolo[4,3-c]azepine-2(4H)-carboxamide]
≥ 8.70	≥ 8.70	≥ 8.70					6.15	≤ 5.00	6.52	5.65	5.05	≤ 5.00	CCc1c(F)ccc2cc(O)cc(-c3ncc4c(N5CCCn6nc(C(=O)NCCO)cc6C5)nc(OC[C@@]56CCCN5C[C@H](F)C6)nc4c3F)c12 [Example 506, 5-(7-(8-ethyl-7-fluoro-3-hydroxynaphthalen-1-yl)-8-fluoro-2-(((2R,7aS)-2-fluorotetrahydro-1H-pyrrolizin-7a(5H)-yl)methoxy)pyrido[4,3-d]pyrimidin-4-yl)-N-(2-hydroxyethyl)-5,6,7,8-tetrahydro-4H-pyrazolo[1,5-a][1,4]diazepine-2-carboxamide]
≥ 8.70	≥ 8.70	≥ 8.70					7.08	≤ 5.00	6.05	6.47	5.80		CCc1c(F)ccc2cc(O)cc(-c3ncc4c(NCc5cc(C(=O)N(C)C)nn5C)nc(OC[C@@]56CCCN5C[C@H](F)C6)nc4c3F)c12 [Example 483, 5-(((7-(8-ethyl-7-fluoro-3-hydroxynaphthalen-1-yl)-8-fluoro-2-(((2R,7aS)-2-fluorotetrahydro-1H-pyrrolizin-7a(5H)-yl)methoxy)pyrido[4,3-d]pyrimidin-4-yl)amino)methyl)-N,N,1-trimethyl-1H-pyrazole-3-carboxamide]
8.40	8.40	8.15					7.31	5.27	6.41	6.19	6.08	5.50	CCc1c(F)ccc2cc(O)cc(-c3ncc4c(N5CCCC6(C5)CS(=O)(=O)C6)nc(OC[C@@]56CCCN5C[C@H](F)C6)nc4c3F)c12 [Example 481, 6-(7-(8-ethyl-7-fluoro-3-hydroxynaphthalen-1-yl)-8-fluoro-2-(((2R,7aS)-2-fluorohexahydro-1H-pyrrolizin-7a-yl)methoxy)pyrido[4,3-d]pyrimidin-4-yl)-2-thia-6-azaspiro[3.5]nonane 2,2-dioxide]
8.52	≥ 8.70	≥ 8.70					6.87	≤ 5.00	6.45	6.10	6.01	5.66	CCc1c(F)ccc2cc(O)cc(-c3ncc4c(NCC5CNS(=O)(=O)N5)nc(OC[C@@]56CCCN5C[C@H](F)C6)nc4c3F)c12 (stereo partly drawn) [Example 494, 3-(((7-(8-ethyl-7-fluoro-3-hydroxynaphthalen-1-yl)-8-fluoro-2-(((2R,7aS)-2-fluorohexahydro-1H-pyrrolizin-7a-yl)methoxy)pyrido[4,3-d]pyrimidin-4-yl)amino)methyl)-1,2,5-thiadiazolidine 1,1-dioxide]
8.15	≥ 8.70	8.30					7.59	5.74	6.37	6.95	6.52	6.27	Oc1cc(-c2ncc3c(N4CC5CC(O)CC4C5)nc(OC[C@@]45CCCN4C[C@H](F)C5)nc3c2F)c2c(Cl)c(F)ccc2c1 (stereo partly drawn) [Example 422, 6-(7-(8-chloro-7-fluoro-3-hydroxynaphthalen-1-yl)-8-fluoro-2-(((2R,7aS)-2-fluorohexahydro-1H-pyrrolizin-7a-yl)methoxy)pyrido[4,3-d]pyrimidin-4-yl)-6-azabicyclo[3.2.1]octan-3-ol]

The remaining lines, values behind:

SMILES	pIC50 (KRas G12D)	pIC50 (KRas G12V)	pIC50 (KRas G12R)	pIC50 (KRas G12A)	pIC50 (KRas G12S)	pIC50 (KRas G12C)	pIC50 (KRas WT)	pIC50 (pERK in MKN1 cells)	pIC50 (pERK in PSN1 cells)	pIC50 (pERK in ASPC1 cells)	pIC50 (pERK in H727 cells)	pIC50 (pERK in H460 cells)	pIC50 (pERK in HCT116 cells)
CCc1c(F)ccc2cc(O)cc(-c3ncc4c(N5CCCC6(CC(=O)NC6=O)C5)nc(OC[C@@]56CCCN5C[C@H](F)C6)nc4c3F)c12 (stereo partly drawn) [Example 318, 7-(7-(8-ethyl-7-fluoro-3-hydroxynaphthalen-1-yl)-8-fluoro-2-(((2R,7aS)-2-fluorohexahydro-1H-pyrrolizin-7a-yl)methoxy)pyrido[4,3-d]pyrimidin-4-yl)-2,7-diazaspiro[4.5]decane-1,3-dione]	≥ 8.70	≥ 8.70	≥ 8.70	≥ 8.70	≥ 8.70	≥ 8.70	≥ 8.70	7.89	6.06	6.88	7.16	7.19	7.22
CCc1c(F)ccc2cc(O)cc(-c3ncc4c(N5CCCCC(O)C5)nc(OC[C@@]56CCCN5C[C@H](F)C6)nc4c3F)c12 (stereo partly drawn) [Example 347, 1-(7-(8-ethyl-7-fluoro-3-hydroxynaphthalen-1-yl)-8-fluoro-2-(((2R,7aS)-2-fluorohexahydro-1H-pyrrolizin-7a-yl)methoxy)pyrido[4,3-d]pyrimidin-4-yl)azepan-3-ol]	8.52	8.52	8.52					7.01	5.35	6.93	7.14	6.90	6.71
O=S1(=O)NCC2(CCCN(c3nc(OC[C@@]45CCCN4C[C@H](F)C5)nc4c(F)c(-c5cc(O)cc6ccc(F)c(Cl)c56)ncc34)C2)N1 (stereo partly drawn) [Example 417, 7-(7-(8-chloro-7-fluoro-3-hydroxynaphthalen-1-yl)-8-fluoro-2-(((2R,7aS)-2-fluorohexahydro-1H-pyrrolizin-7a-yl)methoxy)pyrido[4,3-d]pyrimidin-4-yl)-2-thia-1,3,7-triazaspiro[4.5]decan 2,2-dioxide]	≥ 8.70	≥ 8.70	≥ 8.70			≥ 8.70	≥ 8.70	7.70	6.96	6.74	7.24	7.20	7.10
CCc1c(F)ccc2cc(O)cc(-c3ncc4c(N5C[C@@H]6C[C@H](C5)[C@H](O)C6)nc(OCC5(CN6CCCC6)CC5)nc4c3F)c12 [Example 320, (1R,5R,6R)-3-(7-(8-ethyl-7-fluoro-3-hydroxynaphthalen-1-yl)-8-fluoro-2-((1-(pyrrolidin-1-ylmethyl)cyclopropyl)methoxy)pyrido[4,3-d]pyrimidin-4-yl)-3-azabicyclo[3,2,1]octan-6-ol]	8.52	≥ 8.70	8.52	≥ 8.70	≥ 8.70	≥ 8.70	≥ 8.70	8.00	5.29	6.94	7.09	7.00	7.19
O=C1C[C@]2(CCCN(c3nc(OC[C@@]45CCCN4C[C@H](F)C5)nc4c(F)c(-c5cc(O)cc6ccc(F)c(Cl)c56)ncc34)C2)N1 [Example 416, (S)-6-(7-(8-chloro-7-fluoro-3-hydroxynaphthalen-1-yl)-8-fluoro-2-(((2R,7aS)-2-fluorohexahydro-1H-pyrrolizin-7a-yl)methoxy)pyrido[4,3-d]pyrimidin-4-yl)-1,6-diazaspiro[3.5]nonan-2-one]	≥ 8.70	≥ 8.70	≥ 8.70					8.52	5.88	6.85	7.08	6.55	5.66
